Holding throughout (experiment): biochemical
One test addresses T1, MMP-1 (Homo sapiens, UniProt P03956).
T1 construct: made in house; host or cells: transfected HT-1080 cells (provided by Dr. Harold Welgus, Washington University)
T1 sequence (P03956 100-469): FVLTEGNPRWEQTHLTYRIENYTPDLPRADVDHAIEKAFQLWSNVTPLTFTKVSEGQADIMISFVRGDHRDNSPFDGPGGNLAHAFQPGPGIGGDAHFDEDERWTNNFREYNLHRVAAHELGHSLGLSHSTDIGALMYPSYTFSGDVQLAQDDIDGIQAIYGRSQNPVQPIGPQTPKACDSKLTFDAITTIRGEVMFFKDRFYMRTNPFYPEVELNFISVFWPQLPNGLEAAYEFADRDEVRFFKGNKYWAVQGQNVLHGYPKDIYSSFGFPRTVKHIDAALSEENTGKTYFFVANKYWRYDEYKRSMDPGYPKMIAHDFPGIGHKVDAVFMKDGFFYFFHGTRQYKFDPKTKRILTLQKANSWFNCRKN
Particulars: read-out: MMP-1 IC50. Put shortly: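 APMA- or trypsin-activated human MMPs (MMP-1 from transfected HT-1080 cells, MMP-2 from transfected cells) preincubated with inhibitor in 1% DMSO at room temperature, then 4 μM MCA-Pro-Leu-Gly-Leu-Dpa-Ala-Arg-NH2 added in Tris/NaCl/CaCl2 buffer pH 7.5. IC50 from fluorescence reduction versus inhibitor concentration.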

For the next test, the target named is T2, MMP-13 (Homo sapiens, UniProt P45452).
T2 construct: made in house; host or cells: baculovirus / insect cells
As to conditions: read-out: MMP-13 IC50. Put shortly:
(§1)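 APMA- or trypsin-activated enzymes were preincubated with inhibitor for 5 min at room temperature, then the fluorogenic substrate MCA-Pro-Leu-Gly-Leu-Dpa-Ala-Arg-NH2 was added to a final 4 μM.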

In a further test the target is T3, MMP-2 (Homo sapiens, UniProt P08253).
T3 construct: made in house; provided by Dr. Gregory Goldberg, Washington University
T3 sequence (P08253 110-660): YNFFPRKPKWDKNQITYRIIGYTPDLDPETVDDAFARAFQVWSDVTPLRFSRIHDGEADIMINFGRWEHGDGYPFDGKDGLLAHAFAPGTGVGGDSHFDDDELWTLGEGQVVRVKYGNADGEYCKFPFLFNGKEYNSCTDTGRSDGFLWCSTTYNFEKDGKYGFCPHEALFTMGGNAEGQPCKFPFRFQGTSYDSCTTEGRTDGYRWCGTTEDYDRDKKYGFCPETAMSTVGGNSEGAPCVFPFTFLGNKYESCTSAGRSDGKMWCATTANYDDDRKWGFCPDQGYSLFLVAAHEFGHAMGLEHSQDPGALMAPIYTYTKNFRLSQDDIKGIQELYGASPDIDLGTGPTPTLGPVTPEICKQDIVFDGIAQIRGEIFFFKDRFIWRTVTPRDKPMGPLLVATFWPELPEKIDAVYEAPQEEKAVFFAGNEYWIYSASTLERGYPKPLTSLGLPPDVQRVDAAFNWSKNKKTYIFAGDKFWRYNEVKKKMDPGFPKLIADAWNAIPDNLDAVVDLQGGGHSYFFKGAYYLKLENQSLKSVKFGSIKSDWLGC
Put shortly:
as §1

[1] abbreviates: recombinant human MMP-1, MCA peptide substrate 4 μM, pH 7.5, room temperature.
Where [2] appears, read: recombinant human MMP-13, MCA peptide substrate 4 μM, pH 7.5, room temperature.
The mark [3] stands for this setting: recombinant human MMP-2, MCA peptide substrate 4 μM, pH 7.5, room temperature, read-out: MMP-2 IC50.

Structures can show the parent of a compound that is named as a salt. Where two headings read alike, the source gives them in different places.

As a reminder, the IC50 is the concentration at which inhibition is half-maximal.

With `COc1cccc(NC(=O)N2CCC(C(=O)NO)(S(=O)(=O)c3ccc(Oc4ccc(OC(F)(F)F)cc4)cc3)CC2)c1` [Example 353], the figures for the IC50 on MMP-1 (setting [1]), at MMP-13 (setting [2]) and on MMP-2 (setting [3]) were > 10000 nM, 0.3 nM and < 0.1 nM, respectively.
With `CCC(C)COCc1ccc(COC2CCN(c3ccc(S(=O)(=O)C4(C(=O)NO)CCOCC4)cc3)CC2)cc1` (stereo not drawn) [Example 601], the values for the IC50 at MMP-1 (setting [1]), on MMP-13 (setting [2]) and at MMP-2 (setting [3]) were > 10000 nM, 9 nM and 1300 nM, respectively.
On to `CCc1ccc(C(=O)C2CCN(c3ccc(S(=O)(=O)C4(C(=O)NO)CCOCC4)cc3)CC2)cc1` [Example 733], for which the IC50 on MMP-1 (setting [1]) was > 10000 nM; at MMP-13 (setting [2]), 1.6 nM; on MMP-2 (setting [3]), 270 nM.
`O=C(NO)C1(S(=O)(=O)c2ccc(N3CC4CC3CN4c3cccc(F)c3)cc2)CCOCC1` (stereo not drawn) [Example 491]: the IC50 at MMP-1 (setting [1]), at MMP-13 (setting [2]) and on MMP-2 (setting [3]) was > 10000 nM each time.
For `O=C(c1ccc(C(F)(F)F)cc1)C1CCN(c2ccc(S(=O)(=O)C3(C(=O)NO)CCOCC3)cc2)CC1` [Example 729], the IC50 on MMP-1 (setting [1]) was > 10000 nM; at MMP-13 (setting [2]) it was 14.8 nM; on MMP-2 (setting [3]), 240 nM.
`O=C(C1CCN(c2ccc(S(=O)(=O)C3(C(=O)NO)CCOCC3)cc2)CC1)N1CCN(c2ccc(F)cc2)CC1` [Example 25]: the values for the IC50 at MMP-1, at MMP-13 and against MMP-2 (MMP-2 IC50 (nM)) were > 10000 nM, 6 nM and 1600 nM, respectively.
On to `COCCN1CCC(C(=O)NO)(S(=O)(=O)c2ccc(N3CCC(C(=O)NCCCc4ccccc4)CC3)cc2)CC1` [Example 237, N-Hydroxy-1-(2-methoxyethyl)-4-[[4-[4-[[(3-phenylpropyl)amino]carbonyl]-1-piperidinyl]-phenyl]sulfonyl]-4-piperidinecarboxamide, Monohydrochloride], for which the IC50 on MMP-1 (setting [1]) is > 10000 nM; on MMP-13 (setting [2]), 13 nM; on MMP-2 (setting [3]) it was 1900 nM.
In the same order, the values of `O=C(NO)C1(S(=O)(=O)c2ccc(Oc3ccc(C(F)(F)F)cc3)cc2)CCN(c2ncccc2[N+](=O)[O-])CC1` [Example 374] are > 10000 nM, 3.3 nM and 4 nM.
In the same order, the values of `O=C(Nc1ccncc1)C1CCN(c2ccc(S(=O)(=O)C3(C(=O)NO)CCOCC3)cc2)CC1` [Example 62] are > 10000 nM, 14 nM and 690 nM.
For the compound `O=C(CN1CCOCC1)N1CCC(C(=O)NO)(S(=O)(=O)c2ccc(Oc3ccc(C(F)(F)F)cc3)cc2)CC1` [Example 319], the IC50 at MMP-1 (setting [1]) was > 10000 nM; on MMP-13 (setting [2]), 0.5 nM; at MMP-2 (setting [3]), 0.2 nM.
The like results for `O=C(NO)C1(S(=O)(=O)c2ccc(N3CCC(Oc4ccc(Cl)c(Cl)c4)CC3)cc2)CCOCC1` [Example 617] were, in that order, > 10000 nM, 7 nM and 5.7 nM.
With `O=C(NO)C1(S(=O)(=O)c2ccc(N3CCC(OCc4cccc(C(F)(F)F)c4)CC3)cc2)CCN(C2CC2)CC1` [Example 402], the figures for the IC50 at MMP-1 (setting [1]), on MMP-13 (setting [2]) and on MMP-2 (setting [3]) were > 10000 nM, 15.8 nM and 340 nM, respectively.
In the same order, the values of `O=C(NO)C1(S(=O)(=O)c2ccc(N3CCC(OCc4cccc(F)c4)CC3)cc2)CCOCC1` [Example 575] are > 10000 nM, 10.7 nM and 110 nM.
In the same order, the values of `CCCN(CC(=O)N1CCC(C(=O)NO)(S(=O)(=O)c2ccc(N3CCC(C(=O)N4CC(C)CC(C)C4)CC3)cc2)CC1)CC1CC1` (stereo not drawn) [Example 292] are > 10000 nM, 100 nM and > 10000 nM.
In the same order, the values of `CC(C)N1CCC(C(=O)NO)(S(=O)(=O)c2ccc(OC(F)(F)F)cc2)CC1` [Example 439] are > 10000 nM, 1070 nM and 1600 nM.
On to `O=C(CNCc1ccncc1)N1CCC(C(=O)NO)(S(=O)(=O)c2ccc(Oc3ccc(C(F)(F)F)cc3)cc2)CC1` [Example 325], for which the figures for the IC50 on MMP-1 (setting [1]), on MMP-13 (setting [2]) and on MMP-2 (setting [3]) were > 10000 nM, 0.9 nM and 0.2 nM, respectively.
Take `CC1CC(C)CN(C(=O)C2CCN(c3ccc(S(=O)(=O)C4(C(=O)NO)CCN(C(=O)CNCc5cccs5)CC4)cc3)CC2)C1` (stereo not drawn) [Example 282]: the IC50 was > 10000 nM on MMP-1 (setting [1]), 14.8 nM at MMP-13 (setting [2]) and 9000 nM on MMP-2 (setting [3]).
`O=C(c1ccc(C(F)(F)F)c(F)c1)C1CCN(c2ccc(S(=O)(=O)C3(C(=O)NO)CCOCC3)cc2)CC1` [Example 738]: the IC50 is > 10000 nM on MMP-1 (setting [1]), 22 nM on MMP-13 (setting [2]) and 270 nM at MMP-2 (setting [3]).
The like results for `CCN(CC)CC(=O)N1CCC(C(=O)NO)(S(=O)(=O)c2ccc(N3CCC(C(=O)N4CC(C)CC(C)C4)CC3)cc2)CC1` (stereo not drawn) [Example 295] were, in that order, > 10000 nM, 50 nM and > 10000 nM.
In the same order, the values of `O=C(NO)C1(S(=O)(=O)c2ccc(N3CCCC3)cc2)CCOCC1` [Example 81] are > 10000 nM, 60 nM and 158 nM.
In the same order, the values of `CC1CC(C)CN(C(=O)C2CCN(c3ccc(S(=O)(=O)C4(C(=O)NO)CCN(C(=O)CN(C)CCN(C)C)CC4)cc3)CC2)C1` (stereo not drawn) [Example 287] are > 10000 nM, 150 nM and > 10000 nM.
For the compound `COc1cc(OC)cc(OC2CCN(c3ccc(S(=O)(=O)C4(C(=O)NO)CCOCC4)cc3)CC2)c1` [Example 639], the IC50 on MMP-1 (setting [1]) came to 9400 nM; at MMP-13 (setting [2]) it was 1.5 nM; at MMP-2 (setting [3]), 1.5 nM.
As for `O=C(Nc1ccccc1C(F)(F)F)N1CCC(C(=O)NO)(S(=O)(=O)c2ccc(Oc3ccc(OC(F)(F)F)cc3)cc2)CC1` [Example 364], the IC50 on MMP-1 (setting [1]) is > 10000 nM; at MMP-13 (setting [2]) it was 1 nM; at MMP-2 (setting [3]), 0.2 nM.
The like results for `O=C(NO)C1(S(=O)(=O)c2ccc(N3CCC(CCOCc4ccccc4)CC3)cc2)CCOCC1` [Example 499] were, in that order, > 10000 nM, 0.9 nM and 19.3 nM.
As to `O=C(NO)C1(S(=O)(=O)c2ccc(Oc3ccc(OC(F)(F)F)cc3)cc2)CCN(c2ccncc2)CC1` [Example 391], the IC50 on MMP-1 (setting [1]) is 5400 nM; at MMP-13 (setting [2]), 0.1 nM; on MMP-2 (setting [3]) it was < 0.1 nM.
In the same order, the values of `CC1CC(C)CN(C(=O)C2CCN(c3ccc(S(=O)(=O)C4(C(=O)NO)CCN(C(=O)CN5CCC(O)CC5)CC4)cc3)CC2)C1` (stereo not drawn) [Example 304] are > 10000 nM, 30.6 nM and 7000 nM.
As to `O=C(Nc1ccccc1)OC1CCN(c2ccc(S(=O)(=O)C3(C(=O)NO)CCOCC3)cc2)CC1` [Example 515], the IC50 on MMP-1 was > 10000 nM; on MMP-13 (setting [2]), 8 nM; at MMP-2 (setting [3]), 27 nM.
For `COC[C@@H]1CCN(c2ccc(S(=O)(=O)C3(C(=O)NO)CCOCC3)cc2)C1` [Example 529], the IC50 at MMP-1 (setting [1]) was > 10000 nM; at MMP-13 (setting [2]), 8800 nM; on MMP-2 (setting [3]), > 10000 nM.
Consider `O=C(NO)C1(S(=O)(=O)c2ccc(N3CCc4ccccc4C3)cc2)CCOCC1` [Example 484], for which the IC50 at MMP-1 (setting [1]) was > 10000 nM; at MMP-13 (setting [2]), 240 nM; on MMP-2 (setting [3]) it was 100 nM.
In the same order, the values of `O=C(NO)C1(S(=O)(=O)c2ccc(N3CCC(OCc4cccc(Cl)c4)CC3)cc2)CCOCC1` [Example 573] are > 10000 nM, 11.4 nM and 235 nM.

Values taken from patent publication US6750228B1, “Aromatic sulfone hydroxamic acid metalloprotease inhibitor” (priority 1997, dated 2004).
